Where “and” joins values, the source holds several entries; their conditions need not be identical. Identical values can stand only once.
Tests used:
[1] = tested on: plasma HIV RNA; experiment: Plasma HIV RNA copy number by cDNA gene amplification (PCR) and enzyme-linked affinity assay; type: in vivo, human (HIV antibody-positive subjects); settings: individual patient
Text: After informed consent was obtained, whole blood samples were collected by venipuncture in the presence of acid-citrate-dextrose as an anticoagulant. A single plasma sample was collected from 39 HIV antibody-positive subjects who were not receiving antiretroviral therapy at the time of collection and from 33 HIV antibody-positive subjects who were currently on and had received AZT for a minimum of 3 mo.
(§1) Two plasma samples were collected from an additional 27 subjects before and 1 month after initiation of dideoxynucleoside therapy. 18 of these subjects received 500 mg/d of AZT orally. Seven subjects received a combination of zidovudine (150-600 mg/d) and 2′,3′-dideoxyinosine (ddI) (134-500 mg/d). Two patients received 500 mg/d of ddI alone (see Table I for individual subject characteristics). Finally, nine of these subjects had two plasma samples taken 1-3 wk. before initiating antiretroviral therapy and two plasma samples taken 1 and 2 mo. after commencing therapy. Plasma was separated within 4 h. by centrifugation at 500 g for 10 min. A second centrifugation was performed on the plasma at 500 g for 30 min. to remove any cellular material. 200 μl of plasma was then mixed with 200 μl of a solution containing 5M guanidinium thiocyanate, vortexed briefly, and stored at −70° C. until further use. All samples were assayed within 3 mo. of collection. To decrease variance, all specimens to be compared from the same subject were run in the same assay.
RNA was extracted from plasma by the method described in Chomczynski et al., 1987, Ann. Biochem. 162:156-159. Briefly, 200 μl of clarified plasma to which 200 μl of 5M guanidinium thiocyanate had previously been added was extracted with phenol/chloroform and precipitated with isopropanol. The resulting pellet was then washed in 75% ethanol, dried, and brought up in diethylpyrocarbonate treated, glass distilled water.
HIV RNA was transcribed to cDNA using Moloney murine leukemia virus reverse transcriptase (Bethesda Research Laboratories, Gaithersburg, Md.) by the method described in Kawasaki, 1990, “In PCR Protocols: A Guide to Methods and Applications” pp. 21-27, M. A. Innis, D. H. Gelfand, J. J. Sninsky, and T. J. White, eds. Academic Press, Berkeley, Calif. Oligomers used for amplification included SK38, SK39, and SK19 (Kellog et al., 1990, “In PCR Protocols: A Guide to Methods and Applications,” pp. 337-348, M. A. Innis, D. H. Gelfand, J. J. Sninsky, and T. J. White, eds. Academic Press, Berkeley, Calif.). Biotinylation of SK38 and horseradish peroxidase (HRP) labeling of probe SK19 were prepared as described in Levenson et al., 1990, “In PCR Protocols: A Guide to Methods and Applications,” pp. 99-112M. S. Innis, D. H. Gelfand, J. J. Sninsky, and T. J. White, eds. Academic Press, Berkeley, Calif. Amplification of HIV cDNA was carried out as follows: to a 100-μl reaction mixture was added the cDNA, 50 pmol of primers SK38 and SDK39, […] of each dNTP, 10 mM Tris (pH 8.3), 2.5 mM MgCl2, 50 mM KCl, and 2.5 U of recombiTaq DNA polymerase (Perkin-Elmer Cetus, Norwalk, Conn.). The mixture was then overlaid with 50 μl of mineral oil. Tubes were placed in a DNA thermal cycler (Perkin-Elmer Cetus) for 30 cycles of amplification with the following program: 95° C./30 s, 55° C./30s, and 72° C./60 s for denaturation, annealing, and extension, respectively. Negative and positive controls which included both high and low copy number HIV RNA and DNA were added at each step.
To detect and quantitate PCR product, 96-well microplates (Maxisorp; Nunc, Naperville, Ill.) were coated with 100 μl of a 0.1 mg/ml solution of avidin (Sigma Chemical Co., St. Louis, Mo.) in 50 mM Na2CO3 (pH 9.6) overnight at room temperature. Wells were then washed twice with PBS. Wells were then filled with 300 μl of a blocking solution containing 5X Denhardt's solution, 1% gelatin (Sigma), […] sheared herring sperm DNA (Promega Biotec, Madison, Wis.) at least overnight at 4° C. […]

[2] = tested on: CD4 cells; parameters: species or system human (HIV antibody-positive subjects); settings: human, in vivo
Protocol: as §1
Sample optical density was converted to copy number and analyses performed on samples expressed as RNA copy number/200 μl of plasma. […] A t test of paired samples was used to analyze paired plasma data and CD4 counts from subjects pre- and post-therapy. All t tests were two tailed. […]

[3] = tested on: serum HIV RNA; experiment: Serum virus burden by quantitative PCR in patients receiving didanosine monotherapy; type: in vivo, human (patients infected with HIV)
Text: Duplicate serum samples were ultracentrifuged, and the pellet was purified by phenol-chloroform extraction and alcohol precipitation, as previously described for plasma (Winters et al., 1993, J. Clin. Microbiol. 31:2960-2966). Polymerase chain reaction quantification of viral RNA was done using reverse-transcriptase PCR, and the PCR product was detected using a nonisotopic enzyme-hybridization assay, as previously described (Winters et al., 1992, PCR Methods Appl. 1:257-262). Results were then expressed as HIV RNA copies per milliliter of serum.
(§2) A two-sided t-test was used to compare changes in virus burden between patient groups. A standard one-sample, two-sided Wilcoxon test was used to compare differences in the change of slopes of CD4^+ T cells (slopes of CD4^+ cells before the mutation compared with slopes of CD4^+ cells after the mutation) for patients developing a mutation at codon 74. The slope difference test analysis pertained to the slope difference statistic, defined to be the difference in fitted slope of the CD4^+ counts after compared with before the mutation at codon 74. Thirty-four of 38 patients in the mutation group had sufficient data to allow computation of the slope difference statistic.

[4] = tested on: CD4+ T cells; experiment: CD4+ T-cell slope changes before/after codon 74 mutation on didanosine; type: in vivo, human (patients infected with HIV); settings: 34 of 38 patients who developed the mutation; CI −2.68 to −0.71
Text: as §2
We compared the slope difference statistic values for the 34 mutants with the corresponding values from the wild-type group in order to see if they were more negative in the mutant group. […]

[5] = tested on: HIV with codon 74 mutation in reverse transcriptase; settings: codon 74 mutation in an HIV construct (St. Clair et al.); cited from earlier work

OC[C@@H]1CC[C@H](n2cnc3c(O)ncnc32)O1 [ddI, 2′,3′-dideoxyinosine]
Post HIV RNA ([1]; 1 mo after initiation, ddI 500 mg/d): 0 copy number/200 μl of plasma | Pre HIV RNA ([1]; before initiation of therapy): 966 copy number/200 μl of plasma and 3944 copy number/200 μl of plasma | Post CD4 [2]: 328/310 and 222/370 | Pre CD4 [2]: 328/310 and 222/370 | Fold Difference in virus burden, mutant vs wild type ([3]; Week 0, listed as DIDANOSINE): 1.66 fold | Fold Difference in virus burden, mutant vs wild type ([3]; Week 0, listed as didanosine): 1.6 fold | Fold Difference in virus burden, mutant vs wild type ([3]; Week 24, listed as DIDANOSINE): 2.71 fold | Fold Difference in virus burden, mutant vs wild type ([3]; Week 24, listed as didanosine): 2.7 fold | Week 0, mean HIV RNA copies/mL serum ([3]; patients whose codon 74 genotypes became mutant, initiation of didanosine): 83 000 copies/mL serum | Week 0, mean HIV RNA copies/mL serum ([3]; patients whose codon 74 genotypes remained wild type, initiation of didanosine, listed as DIDANOSINE): 50100 copies/mL serum | Week 0, mean HIV RNA copies/mL serum ([3]; patients whose codon 74 genotypes remained wild type, initiation of didanosine, listed as didanosine): 50 100 copies/mL serum | Fold increase in virus burden between week 0 to 24 ([3]; remained wild type at codon 74): 1.65 fold | Week 24, mean HIV RNA copies/mL serum ([3]; remained wild type at codon 74): 82400 copies/mL serum | mean serum virus burden ([3]; subgroup codon 74 mutation with codon 215 mutation, after 24 weeks of didanosine): about 275 400 HIV RNA copies/mL serum | Week 0, mean HIV RNA copies/mL serum ([3]; {}): 83000 copies/mL serum | Week 24, mean HIV RNA copies/mL serum ([3]; {}): 225000 copies/mL serum | median greater decline of CD4+ T-cell slope after vs before codon 74 mutation [4]: −1.54 CD4^+ cells/wk | decrease in susceptibility to didanosine [5]: eightfold
